In the supplement of paper PMC10307832:

Experiments:
Assay in all cases: relative viability (nuclei count vs DMSO), 5 days (fraction); higher = more cells survive
NCI-H1666 = tested on: NCI-H1666
In short: (§1)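 Medians of duplicate plates are given as relative viability. That measure is the nuclei count in treated wells divided by the count in vehicle wells. Counts were taken on 4× images of lung cancer cell lines in 1536-well plates, 5 days after pin-tool dosing the day after seeding with one drug alone or a fixed anchor-drug dose plus five library-drug doses (not always all listed) in √10 steps.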

RERF-LC-KJ = tested on: RERF-LC-KJ
In short: as §1

NCI-H1793 = tested on: NCI-H1793
In short: as §1

EKVX = tested on: EKVX
In short: as §1

NCI-H23 = tested on: NCI-H23
In short: as §1

LCLC-97TM1 = tested on: LCLC-97TM1
In short: as §1

BEN = tested on: BEN
In short: as §1

NCI-H838 = tested on: NCI-H838
In short: as §1

NCI-H2228 = tested on: NCI-H2228
In short: as §1

NCI-H1915 = tested on: NCI-H1915
In short: as §1

NCI-H1355 = tested on: NCI-H1355
In short: as §1

NCI-H2347 = tested on: NCI-H2347
In short: as §1

LC-2-ad = tested on: LC-2-ad
In short: as §1

NCI-H1650 = tested on: NCI-H1650
In short: as §1

PC-3 [JPC-3] = tested on: PC-3 [JPC-3]
In short: as §1

LOU-NH91 = tested on: LOU-NH91
In short: as §1

NCI-H1993 = tested on: NCI-H1993
In short: as §1

NCI-H520 = tested on: NCI-H520
In short: as §1

LU99A = tested on: LU99A
In short: as §1

SW 1573 = tested on: SW 1573
In short: as §1

NCI-H460 = tested on: NCI-H460
In short: as §1

NCI-H650 = tested on: NCI-H650
In short: as §1

A-427 = tested on: A-427
In short: as §1

`O=c1[nH]c2ccccc2n1C1CCN(CCCC(c2ccc(F)cc2)c2ccc(F)cc2)CC1` [Pimozide] + CS(=O)(=O)N1CCN(Cc2cc3nc(-c4cccc5[nH]ncc45)nc(N4CCOCC4)c3s2)CC1 [Pictilisib] (partner 1 µM) gave a relative viability (NCI-H1666; first compound 0.08 µM) of 0.323, a relative viability (NCI-H1666; first compound 0.253 µM) of 0.512 and a relative viability (NCI-H1666; first compound 0.8 µM) of 0.439. It also gave a relative viability (NCI-H1666; first compound 2.53 µM) of 0.385, a relative viability (NCI-H1666; first compound 8 µM) of 0.465 and a relative viability (RERF-LC-KJ; first compound 0.08 µM) of 0.597. The relative viability (RERF-LC-KJ; first compound 0.253 µM) was 0.524, the relative viability (RERF-LC-KJ; first compound 0.8 µM) was 0.522 and the relative viability (RERF-LC-KJ; first compound 2.53 µM) was 0.505. It also gave a relative viability (RERF-LC-KJ; first compound 8 µM) of 0.452, a relative viability (NCI-H1793; first compound 0.08 µM) of 0.296 and a relative viability (NCI-H1793; first compound 0.253 µM) of 0.302. For the same compound, the relative viability (NCI-H1793; first compound 0.8 µM) was 0.311, the relative viability (NCI-H1793; first compound 2.53 µM) was 0.357 and the relative viability (NCI-H1793; first compound 8 µM) was 0.275. For the same compound, the relative viability (EKVX; first compound 0.253 µM) was 0.349, the relative viability (EKVX; first compound 0.8 µM) was 0.431 and the relative viability (EKVX; first compound 2.53 µM) was 0.409. The relative viability (EKVX; first compound 8 µM) was 0.401, the relative viability (NCI-H23; first compound 0.08 µM) was 0.589 and the relative viability (NCI-H23; first compound 0.253 µM) was 0.431. For the same compound, the relative viability (NCI-H23; first compound 0.8 µM) was 0.448, the relative viability (NCI-H23; first compound 2.53 µM) was 0.429 and the relative viability (NCI-H23; first compound 8 µM) was 0.468. It also gave a relative viability (LCLC-97TM1; first compound 0.08 µM) of 0.194, a relative viability (LCLC-97TM1; first compound 0.253 µM) of 0.183 and a relative viability (LCLC-97TM1; first compound 0.8 µM) of 0.225. It also gave a relative viability (LCLC-97TM1; first compound 2.53 µM) of 0.18, a relative viability (LCLC-97TM1; first compound 8 µM) of 0.119 and a relative viability (BEN; first compound 0.08 µM) of 0.627. It also gave a relative viability (BEN; first compound 0.253 µM) of 0.565, a relative viability (BEN; first compound 0.8 µM) of 0.583 and a relative viability (BEN; first compound 2.53 µM) of 0.542. The relative viability (BEN; first compound 8 µM) was 0.595, the relative viability (NCI-H838; first compound 0.08 µM) was 0.484 and the relative viability (NCI-H838; first compound 0.253 µM) was 0.454. For the same compound, the relative viability (NCI-H838; first compound 0.8 µM) was 0.444, the relative viability (NCI-H838; first compound 2.53 µM) was 0.447 and the relative viability (NCI-H838; first compound 8 µM) was 0.427. It also gave a relative viability (NCI-H2228; first compound 0.08 µM) of 0.378, a relative viability (NCI-H2228; first compound 0.253 µM) of 0.386 and a relative viability (NCI-H2228; first compound 0.8 µM) of 0.312. It also gave a relative viability (NCI-H2228; first compound 2.53 µM) of 0.34, a relative viability (NCI-H2228; first compound 8 µM) of 0.29 and a relative viability (NCI-H1915; first compound 0.08 µM) of 0.972. For the same compound, the relative viability (NCI-H1915; first compound 0.253 µM) was 0.892, the relative viability (NCI-H1915; first compound 0.8 µM) was 0.524 and the relative viability (NCI-H1915; first compound 2.53 µM) was 0.889. It also gave a relative viability (NCI-H1915; first compound 8 µM) of 0.796, a relative viability (NCI-H1355; first compound 0.08 µM) of 0.371 and a relative viability (NCI-H1355; first compound 0.253 µM) of 0.417. It also gave a relative viability (NCI-H1355; first compound 0.8 µM) of 0.436, a relative viability (NCI-H1355; first compound 2.53 µM) of 0.466 and a relative viability (NCI-H1355; first compound 8 µM) of 0.357. It also gave a relative viability (NCI-H2347; first compound 0.08 µM) of 0.611, a relative viability (NCI-H2347; first compound 0.253 µM) of 0.599 and a relative viability (NCI-H2347; first compound 0.8 µM) of 0.601. It also gave a relative viability (NCI-H2347; first compound 2.53 µM) of 0.605, a relative viability (NCI-H2347; first compound 8 µM) of 0.605 and a relative viability (LC-2-ad; first compound 0.08 µM) of 0.594. For the same compound, the relative viability (LC-2-ad; first compound 0.253 µM) was 0.405, the relative viability (LC-2-ad; first compound 0.8 µM) was 0.461 and the relative viability (LC-2-ad; first compound 2.53 µM) was 0.553. The relative viability (LC-2-ad; first compound 8 µM) was 0.305, the relative viability (NCI-H1650; first compound 0.08 µM) was 0.589 and the relative viability (NCI-H1650; first compound 0.253 µM) was 0.489. The relative viability (NCI-H1650; first compound 0.8 µM) was 0.461, the relative viability (NCI-H1650; first compound 2.53 µM) was 0.547 and the relative viability (NCI-H1650; first compound 8 µM) was 0.182. It also gave a relative viability (PC-3 [JPC-3]; first compound 0.253 µM) of 0.695, a relative viability (PC-3 [JPC-3]; first compound 0.8 µM) of 0.654 and a relative viability (PC-3 [JPC-3]; first compound 2.53 µM) of 0.698. The relative viability (PC-3 [JPC-3]; first compound 8 µM) was 0.686, the relative viability (LOU-NH91; first compound 0.08 µM) was 0.476 and the relative viability (LOU-NH91; first compound 0.253 µM) was 0.489. It also gave a relative viability (LOU-NH91; first compound 0.8 µM) of 0.521, a relative viability (LOU-NH91; first compound 2.53 µM) of 0.546 and a relative viability (LOU-NH91; first compound 8 µM) of 0.509. For the same compound, the relative viability (NCI-H1993; first compound 0.08 µM) was 0.751, the relative viability (NCI-H1993; first compound 0.253 µM) was 0.902 and the relative viability (NCI-H1993; first compound 0.8 µM) was 0.778. The relative viability (NCI-H1993; first compound 2.53 µM) was 0.91, the relative viability (NCI-H1993; first compound 8 µM) was 0.846 and the relative viability (NCI-H520; first compound 0.08 µM) was 0.294. The relative viability (NCI-H520; first compound 0.253 µM) was 0.337, the relative viability (NCI-H520; first compound 0.8 µM) was 0.248 and the relative viability (NCI-H520; first compound 2.53 µM) was 0.256. It also gave a relative viability (NCI-H520; first compound 8 µM) of 0.259, a relative viability (LU99A; first compound 0.08 µM) of 0.344 and a relative viability (LU99A; first compound 0.253 µM) of 0.284. It also gave a relative viability (LU99A; first compound 0.8 µM) of 0.314, a relative viability (LU99A; first compound 2.53 µM) of 0.302 and a relative viability (LU99A; first compound 8 µM) of 0.334. For the same compound, the relative viability (SW 1573; first compound 0.08 µM) was 0.534, the relative viability (SW 1573; first compound 0.253 µM) was 0.462 and the relative viability (SW 1573; first compound 0.8 µM) was 0.47. It also gave a relative viability (SW 1573; first compound 2.53 µM) of 0.449, a relative viability (SW 1573; first compound 8 µM) of 0.416 and a relative viability (NCI-H460; first compound 0.08 µM) of 0.236. For the same compound, the relative viability (NCI-H460; first compound 0.253 µM) was 0.385, the relative viability (NCI-H460; first compound 0.8 µM) was 0.386 and the relative viability (NCI-H460; first compound 2.53 µM) was 0.353. It also gave a relative viability (NCI-H460; first compound 8 µM) of 0.366, a relative viability (NCI-H650; first compound 0.08 µM) of 0.851 and a relative viability (NCI-H650; first compound 0.253 µM) of 0.852. For the same compound, the relative viability (NCI-H650; first compound 0.8 µM) was 0.878, the relative viability (NCI-H650; first compound 2.53 µM) was 0.92 and the relative viability (NCI-H650; first compound 8 µM) was 1.09. It also gave a relative viability (A-427; first compound 0.08 µM) of 0.723, a relative viability (A-427; first compound 0.253 µM) of 0.729 and a relative viability (A-427; first compound 0.8 µM) of 0.538. It also gave a relative viability (A-427; first compound 2.53 µM) of 0.68 and a relative viability (A-427; first compound 8 µM) of 0.668.
